Where two headings read alike, the source gives them in different places. Marks after values point to notes of the source that are not given here.
Experiments:
S. mansoni TGR = molecular target: T1, S. mansoni TGR (Schistosoma mansoni, UniProt Q962Y6); experiment: S. mansoni TGR enzyme inhibition (DTNB reduction); type: biochemical; conditions: for IC50: 15 min preincubation (enzyme + 100 µM NADPH + compound); for inhibition at 15 µM: compound 15 µM; for inhibition at 30 µM: compound 30 µM
T1 construct: made in house
T1 sequence (Q962Y6 1-598): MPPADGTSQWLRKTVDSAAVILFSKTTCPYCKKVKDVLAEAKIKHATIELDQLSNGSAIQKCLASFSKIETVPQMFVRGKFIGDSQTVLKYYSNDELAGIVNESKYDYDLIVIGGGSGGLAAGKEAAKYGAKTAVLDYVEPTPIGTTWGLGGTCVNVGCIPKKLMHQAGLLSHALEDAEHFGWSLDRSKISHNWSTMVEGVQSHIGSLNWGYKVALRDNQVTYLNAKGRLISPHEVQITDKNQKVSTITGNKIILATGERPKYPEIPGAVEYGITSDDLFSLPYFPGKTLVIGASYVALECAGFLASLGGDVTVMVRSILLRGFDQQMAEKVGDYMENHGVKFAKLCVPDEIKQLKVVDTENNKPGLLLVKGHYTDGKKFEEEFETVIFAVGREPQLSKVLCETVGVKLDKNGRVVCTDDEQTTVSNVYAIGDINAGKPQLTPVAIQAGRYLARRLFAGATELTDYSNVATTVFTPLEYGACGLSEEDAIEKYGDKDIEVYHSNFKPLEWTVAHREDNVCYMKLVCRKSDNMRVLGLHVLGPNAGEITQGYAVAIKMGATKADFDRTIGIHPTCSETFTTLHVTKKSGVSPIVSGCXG

Human TrxR1 = molecular target: T2, Human TrxR1 (Homo sapiens, UniProt Q16881); experiment: Human TrxR1 enzyme inhibition (DTNB reduction); type: biochemical; conditions: for inhibition at 15 µM: compound 15 µM; for inhibition at 30 µM: compound 30 µM
T2 construct: made in house
T2 sequence (Q16881 1-499 isoform Q16881-5): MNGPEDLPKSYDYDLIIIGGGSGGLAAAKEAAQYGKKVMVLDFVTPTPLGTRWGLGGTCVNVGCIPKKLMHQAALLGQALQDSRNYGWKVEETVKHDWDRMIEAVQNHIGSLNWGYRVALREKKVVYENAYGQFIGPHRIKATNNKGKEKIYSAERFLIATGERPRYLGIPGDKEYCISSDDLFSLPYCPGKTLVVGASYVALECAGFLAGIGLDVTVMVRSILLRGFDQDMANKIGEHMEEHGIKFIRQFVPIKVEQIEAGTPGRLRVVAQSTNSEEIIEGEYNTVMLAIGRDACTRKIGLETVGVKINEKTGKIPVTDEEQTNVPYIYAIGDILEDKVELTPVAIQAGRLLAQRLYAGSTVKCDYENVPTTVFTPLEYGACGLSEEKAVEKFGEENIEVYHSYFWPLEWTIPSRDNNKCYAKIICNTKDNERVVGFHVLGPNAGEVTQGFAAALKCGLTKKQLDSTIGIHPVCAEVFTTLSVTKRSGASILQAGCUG
Experimental: Recombinant TGR, human TrxR1, B. malayi (Bm)TrxR and human GR proteins were expressed and purified as described[20],[69],[79]. The codon optimized sequence for P. falciparum (PfTrxR, https://www.ncbi.nlm.nih.gov/protein/CAA60574.1/) with an N-terminal 6-His tag was synthesized and inserted into pET15b (GenScript) and expressed in BL21 (DE3) cells and purified as described for human GR[20]. TGR and TrxR enzyme inhibition assays were performed in triplicate at 25 °C as described[20] in 0.1 M potassium phosphate (pH 7.4), 10 mM EDTA, 100 µM NADPH and 0.01% Tween-20. […] The reaction was started with addition of an equal volume of DTNB (6 mM) and NADPH (100 µM) and the increase in A412 during the first 3 min was recorded. […] The reaction was preincubated for 15 min. Activity was initiated with the addition of 1 mM GSSG and 100 μM NADPH and initial rates of NADPH oxidation were monitored at 340 nm. The reactions were done in triplicate. The IC50 was calculated in GraphPad Prism.

S. mansoni adult worms = experiment: Schistosomicidal activity ex vivo, adult worms (Cell Titer Glo), alone or with channel blockers; type: cell-based; conditions: for LD50 ex vivo S. mansoni adult: 24 h exposure, compound alone
Experimental: Three-week old, female Swiss-Webster mice obtained from the Charles River were housed in the Comparative Research Center of Rush University Medical Center. Mice were infected by percutaneous tail exposure to about 200 S. mansoni or 50 S. japonicum cercaria for adult worms and about 1000 cercaria for juvenile S. mansoni worms through natural transdermal penetration of the cercariae for 1 h[81].
DMSO formulated compounds were diluted with phenol red free M199 medium or RPMI medium for NTS or juvenile and adult worms, respectively, at <1% DMSO final concentrations. NTS, juvenile and adult worms from overnight cultures were tested against compounds in triplicate. Controls were treated with DMSO alone or 5 µM AF as a positive control in appropriate medium. […] Schistosome viabilities in the presence of the compounds were assessed using this formula: % Viability = Averages of Test / Averages of DMSO Control x 100.

Vero cells = experiment: Cytotoxicity in mammalian cells (Cell Titer Glo); type: cell-based
Experimental: Following overnight incubation, formulated DMSO-compound stock solutions were diluted with DMEM at <1% DMSO final concentrations. […] Vero cells treated similarly with different concentrations of PZQ, MZM and AF (Cayman Chemicals) were used as positive controls.

[1] = 15 min preincubation (enzyme + 100 µM NADPH + compound), read-out: Human TrxR1 IC50
[2] = 6 h preincubation (enzyme + 100 µM NADPH + compound), read-out: S. mansoni TGR inhibition (%) at 66.7 µM
[3] = TGR, 15 minutes pre-incubation, read-out: % inhibition
[4] = TGR, 15 minutes pre-incubation, compound 66.7 µM, read-out: % inhibition
[5] = TGR, 6 hours pre-incubation, read-out: % inhibition
[6] = 6 h preincubation, read-out: Human TrxR1 IC50 (µM) or inhibition (%) at 66.7 µM: IC50
[7] = hsTrxR, 15 minutes pre-incubation
[8] = hsTrxR, 15 minutes pre-incubation, compound 66.7 µM, read-out: % inhibition
[9] = Schistosoma mansoni, S. mansoni adult worms, Conc. 5 µM, read-out: % viability
[10] = 6 h preincubation (enzyme + 100 µM NADPH + compound)

Row | Structure (SMILES) | IC50 (S. mansoni TGR) | IC50 (Human TrxR1; [1]) | LD50 ex vivo S. mansoni adult (S. mansoni adult worms) | LD50 ex vivo VERO (Vero cells; 24-hour exposure) | inhibition at 66.7 µM (S. mansoni TGR; [2]) | inhibition at 30 µM (S. mansoni TGR; [3]) | inhibition at 66.7 µM (S. mansoni TGR; [4]) | IC50 (Human TrxR1; [6]) | inhibition at 15 µM (Human TrxR1; [7]) | inhibition at 30 µM (Human TrxR1; [7]) | inhibition at 66.7 µM (Human TrxR1; [8]) | viability at 5 µM (S. mansoni adult worms; [9]) | LD50 ex vivo VERO (Vero cells; African green monkey, 24 h) | S. mansoni TGR inhibition (%) at 66.7 µM (S. mansoni TGR; [10]) | Human TrxR1 IC50 (µM) or inhibition (%) at 66.7 µM: inhibition (Human TrxR1; 66.7 µM, 6 h preincubation) | viability at 5 µM (S. mansoni adult worms; Schistosoma mansoni) | viability at 15 µM (S. mansoni adult worms; Schistosoma mansoni) | viability at 30 µM (S. mansoni adult worms; Schistosoma mansoni) | viability at 50 µM (S. mansoni adult worms; Schistosoma mansoni) | further results
1 | CC(=O)OC[C@H]1O[C@@H]([S-])[C@H](OC(C)=O)[C@@H](OC(C)=O)[C@@H]1OC(C)=O.CCP(CC)CC.[Au+] [AF, auranofin, reference compound] | 0.007 µM | 0.02 µM | 1.1 ± 0.04 µM | 0.59 ± 0.11 µM |  |  |  |  |  |  |  |  |  |  |  |  |  |  |  | % viability (S. mansoni adult worms; S. mansoni adult worms, Conc. 0.5 µM): 85.422%; % viability (S. mansoni adult worms; S. mansoni adult worms, Conc. 1 µM): 43.1217%; % viability (S. mansoni adult worms; S. mansoni adult worms, Conc. 2 µM): 23.1816%; % viability (S. mansoni adult worms; S. mansoni adult worms, Conc. 5 µM): 3.259%; % viability (Vero cells; 0.5 µM): 57.3284%; % viability (Vero cells; 1 µM): 33.3378%; % viability (Vero cells; 5 µM): 0.2783%; % viability (Vero cells; 10 µM): 0.2356%; % viability (Vero cells; 20 µM): 0.164%; % viability (Vero cells; 30 µM): 0.07463%
2 | CCc1ccccc1-c1nc(CN[C@@H]2C[C@@H]3C[C@H]([C@H]2C)C3(C)C)c(C)o1 [Compound 2] | > 66.7 µM | > 66.7 µM | 12.5 ± 0.40 µM |  | 28.7% | 8.85% | 12.5% | 50 ± 13.6 µM | 2.2% | 4.72% | 11.5% | 86.9% | 54.7 ± 6.65 µM |  |  |  |  |  |  | inhibition at 15 µM (S. mansoni TGR; [3]): 4.35%; inhibition at 15 µM (S. mansoni TGR; [5]): 12.1%; inhibition at 30 µM (S. mansoni TGR; [5]): 14.6%; inhibition at 66.7 µM (S. mansoni TGR; TGR, 6 hours pre-incubation, compound 66.7 µM, read-out: % inhibition): 28.7%; viability at 10 µM (S. mansoni adult worms; Schistosoma mansoni, S. mansoni adult worms, Conc. 10 µM, read-out: % viability): 59.5%; viability at 25 µM (S. mansoni adult worms; Schistosoma mansoni, S. mansoni adult worms, Conc. 25 µM, read-out: % viability): 0.114%; viability at 35 µM (S. mansoni adult worms; Schistosoma mansoni, S. mansoni adult worms, Conc. 35 µM): 0.0801%; EC50 (Vero cells; Chlorocebus sabaeus, Vero, estimate from raw data, read-out: EC50 viability of Vero cells): > 50 µM
3 | Cc1oc(C2CCCCC2)nc1CN[C@@H]1C[C@@H]2C[C@H]([C@H]1C)C2(C)C [Compound 4] | > 66.7 µM | > 66.7 µM | 12.6 ± 1.86 µM |  | 68.6% |  |  | 19 ± 5.72 µM | 14.3% | 26.9% | 40.2% |  | >50^a µM |  |  |  |  |  |  | 
4 | C#CCN(Cc1nc(-c2ccccc2)oc1C)[C@@H]1C[C@@H]2C[C@H]([C@H]1C)C2(C)C [Compound 6] |  | > 66.7 µM | 15.7 ± 0.64 µM |  |  | 95.8% | 96.4% |  |  | 1.95% | 2.61% | 88.5% | >100^a µM |  |  |  |  |  |  | inhibition at 1 µM (S. mansoni TGR; TGR, 15 minutes pre-incubation, compound 1 µM): 26.3%; inhibition at 5 µM (S. mansoni TGR; TGR, 15 minutes pre-incubation, compound 5 µM): 74.8%; times more potent against TGR than human TrxR1 (S. mansoni TGR; ratio of IC50s): at least 25 fold; inhibition at 66.7 µM (Human TrxR1; 66.7 µM, 6 h preincubation, read-out: Human TrxR1 IC50 (µM) or inhibition (%) at 66.7 µM: inhibition): 28.9%; viability at 15 µM (S. mansoni adult worms; Schistosoma mansoni, S. mansoni adult worms, Conc. 15 µM, read-out: % viability): 50.6%; viability at 30 µM (S. mansoni adult worms; Schistosoma mansoni, S. mansoni adult worms, Conc. 30 µM, read-out: % viability): 42%; viability at 50 µM (S. mansoni adult worms; Schistosoma mansoni, S. mansoni adult worms, Conc. 50 µM, read-out: % viability): 23.3%
5 | C[C@@H]1N=C(c2ccccc2Cl)c2cc([N+](=O)[O-])ccc2NC1=O [MZM, meclonazepam, reference compound] |  |  | 26.9 ± 0.97 µM | >50^a µM |  |  |  |  |  |  |  |  |  | n.i.^e | n.i.^e | 91.9% | 69.8% | 48.7% | 31.3% | 
6 | O=C(C1CCCCC1)N1CC(=O)N2CCc3ccccc3C2C1 (centres unmarked) [PZQ, praziquantel] |  |  | 32.8 ± 4.07 µM | >50^a µM |  |  |  |  |  |  |  |  |  | n.i.^e | n.i.^e | 95.6% | 75.1% | 54.8% | 35.2% | 

From publication PMC10287695, “Non-covalent inhibitors of thioredoxin glutathione reductase with schistosomicidal activity in vivo” (Nature Communications, 2023)
